Data reported in the supplement of paper PMC10307832.

Key:
Assay in all cases: relative viability (nuclei count vs DMSO), 5 days (fraction); higher = more cells survive
[1] = compound: C1=CC=C(C(=C1)C2=CC=C(C=C2)C3=CSC4=C3C(=C(C(=O)N4)C#N)O)O + CC(C)C[C@H](NC(=O)[C@H](Cc1ccccc1)NC(=O)c1cnccn1)B(O)O [Bortezomib] (partner 0.002 µM)
How it was run: (§1)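 Five library-drug doses in √10 steps were combined with a fixed anchor-drug dose, or a single drug was given alone, by pin tool to lung cancer cell lines in 1536-well plates the day after seeding. Nuclei were stained and counted after 5 days. Relative viability is the nuclei count in treated wells over that in vehicle wells, taken as the median of duplicate plates.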

[2] = compound: CC1=CN2C(=O)C=C(N=C2C(=C1)C(C)NC3=CC=CC=C3)N4CCOCC4 [TGX 221] + Nc1nc2[nH]cc(CCc3ccc(C(=O)N[C@@H](CCC(=O)O)C(=O)O)cc3)c2c(=O)[nH]1 [Pemetrexed] (partner 0.2 µM)
How it was run: as §1

[3] = compound: O=C(CCCCCCNC(=O)c1cnc(N(c2ccccc2)c2ccccc2)nc1)NO [Ricolinostat] + COc1cccc2cc(-c3nc([C@H]4CC[C@H](C(=O)O)CC4)n4ncnc(N)c34)[nH]c12 [OSI-027] (partner 0.5 µM)
How it was run: as §1

[4] = compound: C1=CC=C(C(=C1)C2=CC=C(C=C2)C3=CSC4=C3C(=C(C(=O)N4)C#N)O)O + C[C@]1(O)C[C@@H](c2nc(-c3ccc4ccc(-c5ccccc5)nc4c3)c3c(N)nccn32)C1 [Linsitinib] (partner 1 µM)
How it was run: as §1

Cell Line	relative viability ([1]; first compound 0.08 µM)	relative viability ([1]; first compound 0.253 µM)	relative viability ([1]; first compound 0.8 µM)	relative viability ([1]; first compound 2.53 µM)	relative viability ([1]; first compound 8 µM)	relative viability ([2]; first compound 0.08 µM)	relative viability ([2]; first compound 0.253 µM)	relative viability ([2]; first compound 0.8 µM)	relative viability ([2]; first compound 2.53 µM)	relative viability ([2]; first compound 8 µM)	relative viability ([3]; first compound 0.253 µM)	relative viability ([3]; first compound 0.8 µM)	relative viability ([3]; first compound 2.53 µM)	relative viability ([4]; first compound 0.08 µM)	relative viability ([4]; first compound 0.253 µM)	relative viability ([4]; first compound 0.8 µM)	relative viability ([4]; first compound 2.53 µM)	relative viability ([4]; first compound 8 µM)	relative viability ([3]; first compound 0.08 µM)
NCI-H2087	0.609	1	0.796	0.833	0.899	0.745	0.637	0.582	0.663	0.672	0.603	0.545	0.45	1.14	1.04	0.946	1.08	0.966	
A-427	0.963	1.05	1.02	1.03	1.06	0.992	0.987	0.963	0.989	0.953	0.435	0.414	0.351	1.09	1.12	1.11	1.15	1.18	
NCI-H460		0.828	1.34	1.41	0.624	0.0673	0.0618	0.0662	0.0757	0.0781	0.637	0.622	0.596		0.81	0.682	1.06	0.657	0.507
EBC-1	0.629	0.435	0.489	0.598	0.509									0.784	1.16	0.642	0.925	0.781	
NCI-H23	0.884	1.11	1.19	1.07	0.558	0.599	0.571	0.678	0.526	0.578	0.571	0.578	0.465	0.614	0.58	0.679	0.603	0.402	0.496
NCI-H1437	0.539	0.665	0.603	0.406	0.322	0.347	0.294	0.357	0.329	0.259	0.864	0.774	0.502	0.668	1.37	1.03	1.21	0.81	0.729
EKVX	0.879	0.998	1.03	1.02	0.917	0.404	0.356	0.34	0.375	0.395	0.714		0.677	0.751	1.28	0.883	1.1	0.779	0.6
NCI-H1299	1.07	1.04	0.995	1	0.975									0.848	1	0.852	1.01	0.912	
NCI-H1650		0.241	0.228	0.207	0.207	0.394	0.408	0.324	0.336	0.28	0.586	0.459	0.361						0.471
HARA			1.25	1.03	1.13	0.216	0.234	0.258	0.3	0.221	0.479	0.401	0.175		1.68	0.998	1.07	0.774	0.295
ChaGo-K-1	0.658	0.955	0.957	1.21	0.954	0.264	0.259	0.236	0.231	0.254	0.606	0.539	0.471						0.656
SW 900							0.459	0.469	0.41	0.415	0.808	0.562	0.535						0.462
NCI-H1703	0.28	0.395	0.289	0.301	0.38									0.803	0.446	0.589	0.507	0.76	
SK-MES-1						0.932	0.925	0.948	0.842	0.693	0.561	0.534	0.558	1.18	1.17	0.952	1.03	0.987	0.407
NCI-H522						0.811	1.01	1.13	1	0.915	0.736	0.665	0.69						0.822
LK-2						0.232	0.279	0.219	0.275	0.247	0.234	0.212	0.208	0.34	0.553	0.479	0.717	0.344	0.202
NCI-H1623											0.428	0.414	0.312						0.389
ABC-1	0.281	0.326	0.326	0.364	0.324						0.518	0.482	0.292	0.926	0.906	0.856	0.875	0.735	0.425
NCI-H1395						0.73	0.766	0.709	0.604	0.724	0.651	0.613	0.663		1.89	1.13	1.03	1.38	
NCI-H1648							0.883	0.811	0.722	0.674	0.281	0.249	0.259						0.28
Calu-6	1.18	1.14	1.26	1.06	0.971									0.95	1.1	1.06	1.01	0.786	
NCI-H358						0.189	0.167	0.168	0.166	0.174	0.802	0.734	0.954	0.868	0.742	0.69	0.914	0.595	0.584
NCI-H1944							0.552	0.533	0.6	0.562	0.405	0.34	0.292	1.19	1.18	1.09	1.14	1.19	0.321
A549														0.635	0.606	0.509	0.521	0.393	
IA-LM	0.672	1.13	0.879	1.01	0.58									0.479	1.9	0.198	0.855	0.376	
